Experimental data as given in patent US20170275270A1, “BENZYL SUBSTITUTED INDAZOLES” (Bayer Pharma Aktiengesellschaft, priority 2014, published 2017).
Like-named read-outs stand apart in the source and are kept apart here.

What was measured:
[1] = target: T1, catalytic domain of human Bub1 (amino acids 704-1085) (Homo sapiens, UniProt O43683); test: Bub1 kinase assay (TR-FRET); assay type: biochemical
T1 construct: catalytic domain of human Bub1 (amino acids 704-1085); His6 (N); made in house; host or cells: Hi5 insect cells
T1 sequence (O43683 704-1085): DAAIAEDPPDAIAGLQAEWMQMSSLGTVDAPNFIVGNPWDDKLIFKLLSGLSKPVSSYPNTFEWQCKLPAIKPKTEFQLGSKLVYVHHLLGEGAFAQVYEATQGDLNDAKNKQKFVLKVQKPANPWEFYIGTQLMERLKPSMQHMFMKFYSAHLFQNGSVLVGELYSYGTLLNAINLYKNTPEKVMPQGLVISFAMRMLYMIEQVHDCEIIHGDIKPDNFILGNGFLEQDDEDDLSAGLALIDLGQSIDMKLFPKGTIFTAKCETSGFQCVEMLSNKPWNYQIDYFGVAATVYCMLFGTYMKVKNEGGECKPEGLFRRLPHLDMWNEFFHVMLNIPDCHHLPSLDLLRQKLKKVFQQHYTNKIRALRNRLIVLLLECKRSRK
How it was run: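 Compounds from 2 mM DMSO stocks, serially diluted 1:3.4, incubated with enzyme at 22° C for 60 min. Stopped with EDTA, then 1 h with streptavidin-XL665, anti-phosphoserine antibody and Eu-labelled anti-mouse IgG. Phosphorylated biotin-peptide read by TR-FRET; IC50 by 4-parameter logistic fit.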

Bub1 = Bub1 (Homo sapiens, UniProt O43683); test: Formation-Assay: phosphorylation status of histone 2A by inhibition of kinase activity of Bub1; assay type: cell-based; details: Biological Assay 4.1: H2A Formation IC50, co-treatment with Nocodazole 1 μg/ml, 16 h
Chain of Bub1 (O43683 whole entry): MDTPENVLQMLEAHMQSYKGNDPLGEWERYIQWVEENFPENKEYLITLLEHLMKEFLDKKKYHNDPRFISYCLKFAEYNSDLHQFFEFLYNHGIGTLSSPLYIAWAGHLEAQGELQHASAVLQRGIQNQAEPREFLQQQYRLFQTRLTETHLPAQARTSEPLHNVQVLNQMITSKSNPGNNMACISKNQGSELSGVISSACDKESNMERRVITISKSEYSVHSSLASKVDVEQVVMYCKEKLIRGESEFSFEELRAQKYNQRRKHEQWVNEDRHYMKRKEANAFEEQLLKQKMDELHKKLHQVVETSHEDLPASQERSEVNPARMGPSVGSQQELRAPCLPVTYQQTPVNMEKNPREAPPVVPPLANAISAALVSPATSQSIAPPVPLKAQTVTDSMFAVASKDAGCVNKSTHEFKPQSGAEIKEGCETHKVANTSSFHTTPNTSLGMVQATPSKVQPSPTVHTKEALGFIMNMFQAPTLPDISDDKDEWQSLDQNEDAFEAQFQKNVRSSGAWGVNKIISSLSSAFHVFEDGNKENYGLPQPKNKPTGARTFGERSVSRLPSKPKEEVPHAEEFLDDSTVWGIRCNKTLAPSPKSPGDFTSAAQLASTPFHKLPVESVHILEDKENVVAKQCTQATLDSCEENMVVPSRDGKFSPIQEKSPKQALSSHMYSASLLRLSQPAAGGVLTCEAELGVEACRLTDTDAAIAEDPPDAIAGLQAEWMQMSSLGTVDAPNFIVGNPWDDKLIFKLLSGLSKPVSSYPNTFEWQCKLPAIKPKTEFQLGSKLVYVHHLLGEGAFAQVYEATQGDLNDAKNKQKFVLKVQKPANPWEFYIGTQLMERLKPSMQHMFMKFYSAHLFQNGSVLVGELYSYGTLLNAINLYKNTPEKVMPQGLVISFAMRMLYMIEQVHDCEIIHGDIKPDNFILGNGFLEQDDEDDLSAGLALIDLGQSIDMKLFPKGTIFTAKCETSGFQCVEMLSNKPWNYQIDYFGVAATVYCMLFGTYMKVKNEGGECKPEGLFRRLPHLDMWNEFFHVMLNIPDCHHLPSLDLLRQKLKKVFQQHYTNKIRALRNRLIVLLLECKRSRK
How it was run: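 Cells co-treated 16 h with Nocodazole (1 μg/ml) and compound (3 nM–10 μM), then fixed and immunostained for phospho-H2A, read by infrared imaging (800 nm) normalised to cell stain (700 nm). Nocodazole-only set as 100%, untreated cells as 0%.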

HeLa = test: Proliferation assay (HeLa cell line); details: Homo sapiens, 96 h, read-out: Biological Assay 2: Proliferation assay (HeLa cell line) median IC50;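 note: crystal violet staining of cell number, scaled between a plate stained before dosing (0%) and cells left untreated (100%), compounds tested at 0.001-10 µM, IC50 via 4-parameter fit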
Method: Cultivated tumor cells (cells were ordered from ATCC, except HeLa-MaTu and HeLa-MaTu-ADR, which were ordered from EPO-GmbH, Berlin) were plated at a density of 1000 to 5000 cells/well, depending on the growth rate of the respective cell line, in a 96-well multititer plate in 200 μL of their respective growth medium supplemented 10% fetal calf serum. After 24 hours, the cells of one plate (zero-point plate) were stained with crystal violet (see below), while the medium of the other plates was replaced by fresh culture medium (200 μL), to which the test substances were added in various concentrations (0 μM, as well as in the range of 0.001-10 μM; the final concentration of the solvent dimethyl sulfoxide was 0.5%). The cells were incubated for 4 days in the presence of test substances. Cell proliferation was determined by staining the cells with crystal violet: the cells were fixed by adding 20 μL measuring point of an 11% glutaric aldehyde solution for 15 minutes at room temperature. After three washing cycles of the fixed cells with water, the plates were dried at room temperature. The cells were stained by adding 100 μL/measuring point of a 0.1% crystal violet solution (pH 3.0). After three washing cycles of the stained cells with water, the plates were dried at room temperature. The dye was dissolved by adding 100 μl/measuring point of a 10% acetic acid solution. […] The change of cell number, in percent, was calculated by normalization of the measured values to the absorbtion values of the zero-point plate (=0%) and the absorbtion of the untreated (0 μm) cells (=100%). The IC50 values were determined by means of a 4 parameter fit.

[2] = test system: HeLa human cervical tumor cells; test: Proliferation assay (HeLa+Paclitaxel); details: read-out: Biological Assay 3: HeLa + Paclitaxel IC50, 3 nM paclitaxel, crystal violet;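 note: compounds at 0.001-10 µM added 4 h after paclitaxel, 92 h exposure, absorbance normalized to zero-point plate (0%) and untreated cells (100%), IC50 from 4-parameter fit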
[3] = Biological Assay 1: Bub1 kinase assay median IC50, 10 μM ATP

| IC50 [1, 3] [nM] | IC50 (Bub1) [nM] | IC50 (HeLa) [µM] | IC50 [2] [nM] | IC50 ([1]; 10 μM ATP, read-out: Biological Assay 1: Bub1 kinase assay median IC50) [nM] | SMILES |
| --- | --- | --- | --- | --- | --- |
| 68 | 0.5 | 3.6 | 210 |  | CCOc1cc(F)c(Cn2nc(-c3ncc(C4CCN(CC(F)(F)F)CC4)c(Nc4ccnc(C)c4)n3)c3ccccc32)c(F)c1 [Example 2-20-5, 2-[1-(4-ethoxy-2,6-difluorobenzyl)-1H-indazol-3-yl]-N-(2-methylpyridin-4-yl)-5-[1-(2,2,2-trifluoroethyl)piperidin-4-yl]pyrimidin-4-amine] |
| 260 | 81 | 3.2 | 130 |  | CCOc1cc(F)c(Cn2nc(-c3ncc(C4CCN(CC(F)(F)F)CC4)c(Nc4cc(C)ncc4C)n3)c3ccccc32)c(F)c1 [Example 2-20-6, N-(2,5-dimethylpyridin-4-yl)-2-[1-(4-ethoxy-2,6-difluorobenzyl)-1H-indazol-3-yl]-5-[1-(2,2,2-trifluoroethyl)piperidin-4-yl]pyrimidin-4-amine] |
| 48 | 2.6 | > 10 | 120 |  | CCOc1cc(F)c(Cn2nc(-c3ncc(CCNCC(F)(F)F)c(Nc4ccncc4Cl)n3)c3ccccc32)c(F)c1 [Example 2-20-14, N-(3-chloropyridin-4-yl)-2-[1-(4-ethoxy-2,6-difluorobenzyl)-1H-indazol-3-yl]-5-{2-[(2,2,2-trifluoroethyl)amino]ethyl}pyrimidin-4-amine] |
|  | 1900 | 6 | 98 | 25 | CCOc1cc(F)c(Cn2nc(-c3nc4c(c(Nc5cc(C)ncn5)n3)CCC4)c3ccccc32)c(F)c1 [Example 2-21-1, 2-[1-(4-ethoxy-2,6-difluorobenzyl)-1H-indazol-3-yl]-N-(6-methylpyrimidin-4-yl)-6,7-dihydro-5H-cyclopenta[d]pyrimidin-4-amine] |
| 35 | 72 | 3.6 | 140 |  | CCOc1cc(F)c(Cn2nc(-c3ncc(C4CCN(CCC(F)(F)F)CC4)c(Nc4ccncc4OC)n3)c3ccccc32)c(F)c1 [Example 2-22-1, 2-[1-(4-ethoxy-2,6-difluorobenzyl)-1H-indazol-3-yl]-N-(3-methoxypyridin-4-yl)-5-[1-(3,3,3-trifluoropropyl)piperidin-4-yl]pyrimidin-4-amine] |
| 5.9 | 500 | 4.1 | 1100 |  | CCOc1cc(F)c(Cn2nc(-c3ncc(OCCS(C)(=O)=O)c(Nc4ccncc4)n3)c3ccccc32)c(F)c1 [Example 3-3-1, 2-[1-(4-ethoxy-2,6-difluorobenzyl)-1H-indazol-3-yl]-5-[2-(methylsulfonyl)ethoxy]-N-(pyridin-4-yl)pyrimidin-4-amine, reference compound] |

| SMILES | IC50 [1, 3] [nM] | IC50 (Bub1) [nM] | IC50 (HeLa) [µM] | IC50 [2] [nM] | IC50 ([1]; 10 μM ATP, read-out: Biological Assay 1: Bub1 kinase assay median IC50) [nM] |
| --- | --- | --- | --- | --- | --- |
| CCOc1cc(F)c(Cn2nc(-c3ncc(OCCO)c(Nc4ccncc4)n3)c3ccccc32)c(F)c1 [Example 3-1-1, 2-({2-[1-(4-ethoxy-2,6-difluorobenzyl)-1H-indazol-3-yl]-4-(pyridin-4-ylamino)pyrimidin-5-yl}oxy)ethanol, reference compound] | 11 | 1100 | 1.5 | 1400 |  |
